Measurements from ChEMBL document CHEMBL1201862, “PubChem BioAssay data set” (2004).
Activity calls are given as the source filed them.

Assays:
[1] = MIN6 cell viability loss – mouse insulinoma, cytotoxicity control, dose response (AID 2122); format: functional;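 further: confirmatory high-throughput counterscreen run to flag cytotoxic compounds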
[2] = decrease of insulin promoter-GFP reporter – imaging, high-content screening, mouse beta cells (AID 1628); format: functional; conditions: MIN6
[3] = biological target: Voltage-dependent T-type calcium channel subunit alpha-1H (Homo sapiens, UniProt O95180); format: functional;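 further: channel activity triggered by adding a high calcium stimulation buffer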
Sequence of Voltage-dependent T-type calcium channel subunit alpha-1H (O95180 whole entry): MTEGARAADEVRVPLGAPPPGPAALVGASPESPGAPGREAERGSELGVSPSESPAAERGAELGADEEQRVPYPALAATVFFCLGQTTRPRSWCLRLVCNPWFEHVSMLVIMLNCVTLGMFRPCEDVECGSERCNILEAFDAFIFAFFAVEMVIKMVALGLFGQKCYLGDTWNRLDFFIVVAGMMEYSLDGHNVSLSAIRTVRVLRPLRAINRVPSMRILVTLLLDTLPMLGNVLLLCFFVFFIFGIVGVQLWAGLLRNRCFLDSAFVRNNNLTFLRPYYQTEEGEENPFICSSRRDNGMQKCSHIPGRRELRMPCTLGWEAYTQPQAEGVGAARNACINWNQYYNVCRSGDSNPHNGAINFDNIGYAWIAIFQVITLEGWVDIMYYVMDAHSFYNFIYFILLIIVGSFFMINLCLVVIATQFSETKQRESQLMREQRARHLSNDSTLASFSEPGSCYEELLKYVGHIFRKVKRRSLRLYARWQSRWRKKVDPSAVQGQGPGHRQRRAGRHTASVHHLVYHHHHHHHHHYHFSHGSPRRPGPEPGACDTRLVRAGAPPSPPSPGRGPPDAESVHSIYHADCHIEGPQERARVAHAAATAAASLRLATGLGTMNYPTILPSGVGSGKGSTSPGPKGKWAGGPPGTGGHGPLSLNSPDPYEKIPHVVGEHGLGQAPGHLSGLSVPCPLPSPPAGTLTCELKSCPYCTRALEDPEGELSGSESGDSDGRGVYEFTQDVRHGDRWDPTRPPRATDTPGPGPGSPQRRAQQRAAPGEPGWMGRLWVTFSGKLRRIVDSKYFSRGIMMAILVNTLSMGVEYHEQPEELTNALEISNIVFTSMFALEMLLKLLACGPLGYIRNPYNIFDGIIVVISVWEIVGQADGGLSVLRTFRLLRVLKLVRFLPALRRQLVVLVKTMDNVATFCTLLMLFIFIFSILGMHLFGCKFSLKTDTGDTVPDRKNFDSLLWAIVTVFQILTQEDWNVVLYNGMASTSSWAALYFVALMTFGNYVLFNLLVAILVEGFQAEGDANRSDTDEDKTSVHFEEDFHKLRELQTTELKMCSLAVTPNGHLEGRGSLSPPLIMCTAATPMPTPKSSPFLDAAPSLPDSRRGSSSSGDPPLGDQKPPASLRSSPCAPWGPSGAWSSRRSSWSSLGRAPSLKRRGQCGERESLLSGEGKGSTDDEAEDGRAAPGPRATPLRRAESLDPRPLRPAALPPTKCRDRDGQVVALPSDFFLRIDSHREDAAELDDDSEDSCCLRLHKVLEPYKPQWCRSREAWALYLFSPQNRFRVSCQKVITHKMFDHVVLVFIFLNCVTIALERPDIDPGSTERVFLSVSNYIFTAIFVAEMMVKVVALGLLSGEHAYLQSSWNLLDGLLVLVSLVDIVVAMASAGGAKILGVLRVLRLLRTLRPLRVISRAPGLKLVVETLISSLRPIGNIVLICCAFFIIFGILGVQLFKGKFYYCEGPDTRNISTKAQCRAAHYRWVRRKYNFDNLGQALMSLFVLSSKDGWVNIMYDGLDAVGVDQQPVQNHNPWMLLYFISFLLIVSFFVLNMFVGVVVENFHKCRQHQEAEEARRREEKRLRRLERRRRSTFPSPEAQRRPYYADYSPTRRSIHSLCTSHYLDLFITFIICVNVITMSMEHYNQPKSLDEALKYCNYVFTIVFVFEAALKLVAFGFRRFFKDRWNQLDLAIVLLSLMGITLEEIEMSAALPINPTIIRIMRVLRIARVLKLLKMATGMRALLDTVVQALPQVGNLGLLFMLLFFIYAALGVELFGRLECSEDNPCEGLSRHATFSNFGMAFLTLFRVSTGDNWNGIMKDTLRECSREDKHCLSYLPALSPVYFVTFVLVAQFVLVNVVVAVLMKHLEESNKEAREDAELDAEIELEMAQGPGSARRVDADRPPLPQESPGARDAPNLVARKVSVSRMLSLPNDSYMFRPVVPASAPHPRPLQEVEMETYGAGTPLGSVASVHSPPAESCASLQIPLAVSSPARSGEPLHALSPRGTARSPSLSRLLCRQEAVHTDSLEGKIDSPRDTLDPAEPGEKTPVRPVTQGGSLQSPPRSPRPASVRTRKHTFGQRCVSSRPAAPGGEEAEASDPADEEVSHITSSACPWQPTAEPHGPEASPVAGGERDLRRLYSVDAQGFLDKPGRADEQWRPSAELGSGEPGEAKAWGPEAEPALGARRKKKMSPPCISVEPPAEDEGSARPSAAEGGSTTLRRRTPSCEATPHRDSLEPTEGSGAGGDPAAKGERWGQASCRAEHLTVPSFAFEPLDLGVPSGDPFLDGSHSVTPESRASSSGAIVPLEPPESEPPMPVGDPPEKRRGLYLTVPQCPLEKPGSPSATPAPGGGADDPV

[4] = biological target: Protein Wnt-3a (Mus musculus, UniProt P27467); experiment: antagonism of Wnt3a pathway luciferase reporter – Wnt-LIGHT cells, luminescence, selectivity assay for Gli-SUFU antagonist project, dose response (AID 651570); format: functional; conditions: read-out: IC50_Mean;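 further: Wnt-LIGHT reporter cells stimulated with conditioned medium from Wnt3a-producing cells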
Sequence of Protein Wnt-3a (P27467 whole entry): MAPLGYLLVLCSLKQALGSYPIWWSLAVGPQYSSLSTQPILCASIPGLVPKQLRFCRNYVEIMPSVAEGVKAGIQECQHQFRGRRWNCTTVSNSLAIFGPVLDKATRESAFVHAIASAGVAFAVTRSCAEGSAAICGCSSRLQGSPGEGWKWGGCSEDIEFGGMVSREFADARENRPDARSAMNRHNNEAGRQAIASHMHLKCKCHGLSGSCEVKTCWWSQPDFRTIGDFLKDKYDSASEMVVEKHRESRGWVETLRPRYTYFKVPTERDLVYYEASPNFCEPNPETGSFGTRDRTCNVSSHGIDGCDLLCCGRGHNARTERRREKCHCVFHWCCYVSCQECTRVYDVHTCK

[5] = loss of viability in HepG2 cells – cell-based, CellTiter-Glo, cherry-picked, cytotoxicity control for Shn3 inhibitor project, dose response (AID 624134); format: functional
[6] = reduction of Shn3 3'UTR-driven luciferase in osteoblasts – cell-based, Clone20 osteoblasts, firefly luciferase, cherry-picked, dose response (AID 624132); format: functional;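 further: firefly luciferase luminescence from reporter carrying the Shn3 3'UTR in osteoblasts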
[7] = non-specific 3'UTR reporter inhibition in Clone20-Shn3RL – cell-based, Renilla luciferase, cherry-picked, counter-screen for Shn3 inhibitor project, dose response (AID 624133); format: functional
[8] = biological target: Lysine-specific demethylase 4C (Homo sapiens, UniProt Q9H3R0); experiment: inhibition of JMJD2C H3K9me3 demethylation – biochemical, DELFIA europium, cherry-picked samples, dose response (AID 488835); format: functional
Sequence of Lysine-specific demethylase 4C (Q9H3R0 whole entry): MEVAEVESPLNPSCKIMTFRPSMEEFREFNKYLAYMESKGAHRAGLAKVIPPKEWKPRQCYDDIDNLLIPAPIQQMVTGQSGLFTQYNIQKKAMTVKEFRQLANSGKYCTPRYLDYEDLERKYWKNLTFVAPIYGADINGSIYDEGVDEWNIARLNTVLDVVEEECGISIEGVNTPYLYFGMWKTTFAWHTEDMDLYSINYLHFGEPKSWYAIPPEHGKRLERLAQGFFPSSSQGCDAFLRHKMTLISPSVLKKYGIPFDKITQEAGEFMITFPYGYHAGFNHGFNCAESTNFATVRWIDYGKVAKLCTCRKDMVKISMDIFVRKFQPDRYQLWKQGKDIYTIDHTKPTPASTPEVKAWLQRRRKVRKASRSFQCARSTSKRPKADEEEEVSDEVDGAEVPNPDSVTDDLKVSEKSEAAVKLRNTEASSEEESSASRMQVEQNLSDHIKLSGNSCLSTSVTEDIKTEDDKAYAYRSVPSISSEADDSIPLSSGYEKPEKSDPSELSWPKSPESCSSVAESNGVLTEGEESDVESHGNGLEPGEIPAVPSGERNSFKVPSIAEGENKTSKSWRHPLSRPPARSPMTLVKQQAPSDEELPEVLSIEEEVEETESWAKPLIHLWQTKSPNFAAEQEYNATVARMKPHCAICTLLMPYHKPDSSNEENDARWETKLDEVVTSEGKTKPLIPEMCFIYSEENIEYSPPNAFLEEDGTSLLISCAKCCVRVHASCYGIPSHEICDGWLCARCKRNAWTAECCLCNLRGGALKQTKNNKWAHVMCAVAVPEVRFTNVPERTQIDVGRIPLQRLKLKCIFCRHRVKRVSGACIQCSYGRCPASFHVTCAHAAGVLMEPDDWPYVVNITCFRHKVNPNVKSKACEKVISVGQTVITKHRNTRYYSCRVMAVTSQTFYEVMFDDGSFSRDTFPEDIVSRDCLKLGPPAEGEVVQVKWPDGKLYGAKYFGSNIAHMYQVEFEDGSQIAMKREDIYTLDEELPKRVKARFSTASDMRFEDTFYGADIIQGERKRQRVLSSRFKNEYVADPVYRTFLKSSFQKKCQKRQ

[9] = viability of PTEN-deleted HCT116 cells – cell-based, HCT116 PTEN knockout, dose response (AID 1047); format: functional;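 further: HCT116 colon tumor cells with PTEN knocked out; cells exposed to compound for 60 hours before readout; potency for loss of cell viability measured by luminescence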
[10] = test system: HEK293; experiment: cells; conditions: Homo sapiens
[11] = Luminescence Cell-Based Dose Retest to Confirm Inhibitors of Cancer Stem Cells. [Related pubchem assays (depositor defined):AID2717, AID2721]; format: functional; conditions: Homo sapiens
[12] = viability of HCT116 lacking mutant beta-catenin – cell-based, human colon tumor, dose response (AID 1045); format: functional;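 further: HCT116 colon tumor cells with beta catenin knocked out; cells exposed to compound for 60 hours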
[13] = test system: HEK293; experiment: cells; conditions: Homo sapiens; remark: listed apart in the source
[14] = biological target: T1, Alkaline phosphatase, tissue-nonspecific isozyme (Homo sapiens, UniProt P05186); experiment: TNAP enzyme inhibition by screening hits, dose response, selectivity assay for mouse IAP inhibitor project, biochemical, human TNAP, uHTS hits (AID 488906); format: functional
T1 sequence (P05186 whole entry): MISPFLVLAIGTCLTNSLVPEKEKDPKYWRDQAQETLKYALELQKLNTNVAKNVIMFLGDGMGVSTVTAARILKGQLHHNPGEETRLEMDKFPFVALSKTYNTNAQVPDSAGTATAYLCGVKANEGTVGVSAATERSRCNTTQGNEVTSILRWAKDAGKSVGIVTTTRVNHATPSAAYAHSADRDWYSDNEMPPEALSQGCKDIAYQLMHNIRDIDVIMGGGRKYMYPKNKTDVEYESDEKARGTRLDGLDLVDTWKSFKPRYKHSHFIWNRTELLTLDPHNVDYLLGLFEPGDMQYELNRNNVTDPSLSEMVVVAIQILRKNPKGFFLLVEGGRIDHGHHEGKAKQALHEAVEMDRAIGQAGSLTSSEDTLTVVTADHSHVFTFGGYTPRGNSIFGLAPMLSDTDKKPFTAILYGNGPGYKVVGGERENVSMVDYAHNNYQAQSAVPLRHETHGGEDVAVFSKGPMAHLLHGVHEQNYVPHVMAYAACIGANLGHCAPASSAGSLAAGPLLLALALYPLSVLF

[15] = biological target: Intestinal-type alkaline phosphatase (Homo sapiens, UniProt P09923); experiment: inhibition of human intestinal alkaline phosphatase – biochemical, dose response (AID 488876); format: functional
Sequence of Intestinal-type alkaline phosphatase (Homo sapiens, UniProt P09923) (P09923 whole entry): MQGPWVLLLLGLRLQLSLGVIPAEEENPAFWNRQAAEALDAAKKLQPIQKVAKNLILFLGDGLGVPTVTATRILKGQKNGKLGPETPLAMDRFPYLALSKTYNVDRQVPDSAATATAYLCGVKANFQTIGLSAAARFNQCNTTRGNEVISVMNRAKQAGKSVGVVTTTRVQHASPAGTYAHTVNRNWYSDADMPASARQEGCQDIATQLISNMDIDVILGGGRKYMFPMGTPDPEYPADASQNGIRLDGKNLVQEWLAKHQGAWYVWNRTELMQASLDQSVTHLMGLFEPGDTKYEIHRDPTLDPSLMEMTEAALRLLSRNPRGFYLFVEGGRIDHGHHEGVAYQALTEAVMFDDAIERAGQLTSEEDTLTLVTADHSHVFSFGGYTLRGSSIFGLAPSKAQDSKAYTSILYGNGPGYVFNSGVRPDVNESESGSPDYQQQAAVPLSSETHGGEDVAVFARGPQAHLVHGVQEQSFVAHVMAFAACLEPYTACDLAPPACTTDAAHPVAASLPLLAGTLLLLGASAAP

[16] = biological target: Intestinal-type alkaline phosphatase (Mus musculus, UniProt P24822); experiment: PubChem AID 488785; format: functional
Sequence of Intestinal-type alkaline phosphatase (Mus musculus, UniProt P24822) (P24822 whole entry): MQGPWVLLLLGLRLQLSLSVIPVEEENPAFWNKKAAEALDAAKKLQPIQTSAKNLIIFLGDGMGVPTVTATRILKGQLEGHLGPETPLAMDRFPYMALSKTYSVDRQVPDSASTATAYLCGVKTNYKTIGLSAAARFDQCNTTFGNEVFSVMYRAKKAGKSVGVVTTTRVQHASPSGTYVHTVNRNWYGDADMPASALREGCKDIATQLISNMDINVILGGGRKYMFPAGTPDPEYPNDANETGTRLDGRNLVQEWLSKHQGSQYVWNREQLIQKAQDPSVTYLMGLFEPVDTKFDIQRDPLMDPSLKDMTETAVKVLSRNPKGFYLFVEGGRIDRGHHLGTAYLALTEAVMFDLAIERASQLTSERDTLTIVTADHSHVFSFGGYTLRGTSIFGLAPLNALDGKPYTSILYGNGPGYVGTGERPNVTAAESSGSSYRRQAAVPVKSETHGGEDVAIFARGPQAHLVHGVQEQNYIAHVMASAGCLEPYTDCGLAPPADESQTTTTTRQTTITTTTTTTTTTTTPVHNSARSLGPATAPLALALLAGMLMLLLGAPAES

[17] = biological target: SUMO E1/E2 (Homo sapiens, UniProt P63279+Q9UBE0+Q9UBT2); experiment: SAR analysis of SUMOylation using HTRF in an in-Vitro dose response assay. [Related pubchem assays (depositor defined):AID2006, AID2011, AID2018, AID2069, AID2658]; format: functional
[18] = cells; format: functional, cell-based
[19] = cells; format: functional, cell-based; remark: listed apart in the source
[20] = test system: H9c2; experiment: cells; format: functional, cell-based; conditions: Rattus norvegicus, H9c2, Myocardium;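 further: confirmatory concentration-response retest of ultra-high-throughput screening hits for modulation of myocardial damage; cell death induced by hydrogen peroxide oxidative stress; compound pretreatment for 60 min then peroxide exposure for 2 h; potency is for protecting the cells against peroxide damage rather than for killing them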
[21] = test system: Streptococcus; experiment: GAS UMAA2166 growth inhibition – luminescence, BacTiterGlo, counter-screen for streptokinase expression inhibitor project, dose response (AID 1915); format: functional, organism-based;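 further: potency for reduction of bacterial viability or growth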
[22] = test system: INS1; experiment: INS-1E survival protection against cytokine death – cell-based, luminescence, retest, dose response (AID 449756); format: functional; conditions: Rattus norvegicus, INS1;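 further: cell death triggered by IL-1 beta plus TNF-alpha plus IFN-gamma mixture; protective hits raise ATP signal compared with cytokine alone wells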
[23] = test system: Streptococcus sp. 'group A'; experiment: Streptococcus pyogenes SK(-)GAS viability under kanamycin – luminescence, BacTiterGlo, confirmation, counter-screen for streptokinase expression inhibitor project, dose response (AID 1900); format: functional, organism-based
[24] = biological target: T2, Streptokinase A (Streptococcus pyogenes serotype M1, UniProt P10520); experiment: viability-normalized secreted streptokinase activity reduction – plasminogen activation absorbance, OD405, dose response (AID 1914); format: functional, Streptococcus pyogenes M1 GAS;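 further: secreted streptokinase activity via plasminogen activation per viability signal from cell pellet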
T2 sequence (P10520 whole entry): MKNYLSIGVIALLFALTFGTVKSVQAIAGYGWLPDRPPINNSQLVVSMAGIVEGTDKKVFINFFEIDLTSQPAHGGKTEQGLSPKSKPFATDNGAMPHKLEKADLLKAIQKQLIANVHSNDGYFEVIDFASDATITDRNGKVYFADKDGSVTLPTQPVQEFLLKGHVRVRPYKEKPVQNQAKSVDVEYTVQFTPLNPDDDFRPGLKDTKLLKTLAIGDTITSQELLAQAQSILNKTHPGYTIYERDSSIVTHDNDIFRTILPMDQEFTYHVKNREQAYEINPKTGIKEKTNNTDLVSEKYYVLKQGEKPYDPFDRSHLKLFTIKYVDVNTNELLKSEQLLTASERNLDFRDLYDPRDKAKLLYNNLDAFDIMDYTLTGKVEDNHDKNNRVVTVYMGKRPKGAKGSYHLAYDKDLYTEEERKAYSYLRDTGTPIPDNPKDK

[25] = biological target: T3, Ubiquitin-conjugating enzyme E2 N (Homo sapiens, UniProt P61088); format: functional
T3 sequence (P61088 whole entry): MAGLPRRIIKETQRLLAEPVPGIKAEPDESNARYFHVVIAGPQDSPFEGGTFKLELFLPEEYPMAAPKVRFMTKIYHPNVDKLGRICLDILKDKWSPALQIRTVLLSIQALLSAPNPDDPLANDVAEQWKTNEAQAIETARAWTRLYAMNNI

[26] = biological target: T3, Ubiquitin-conjugating enzyme E2 N; format: functional; remark: listed apart in the source
[27] = biological target: T4, Bcl-2-related protein A1 (Mus musculus, UniProt Q07440); format: functional;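 further: confirmatory dose–response counterscreen on Bfl-1, used to check hits from a UBC13 polyubiquitin inhibitor campaign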
T4 sequence (Q07440 whole entry): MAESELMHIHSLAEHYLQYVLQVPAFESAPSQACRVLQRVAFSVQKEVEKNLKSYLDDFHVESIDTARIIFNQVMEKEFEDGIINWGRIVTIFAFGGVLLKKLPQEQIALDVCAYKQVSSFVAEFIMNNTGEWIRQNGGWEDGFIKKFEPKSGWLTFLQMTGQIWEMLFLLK

With CCCOc1ccccc1N=C(NC(=O)COc1ccc(OC)cc1)Nc1nc(C)cc(C)n1 the IC50 [1] was 3.16 µM (active), the IC50 [2] was 2.3 µM (active) and the EC50 [3] was 8.53 µM (active). The IC50 [4] was 6.39 µM (active), the AC50 [5] was 49.3 µM (active) and the AC50 [6] was 3.24 µM (active). For the same compound, the AC50 [7] was 6.58 µM (active).

In the case of COc1ccc(NC(=O)CNC(=O)c2nn(-c3ccc(OC)c(Cl)c3)c(=O)c3ccccc23)c(OC)c1, the AC50 [8] is reported as 21.5 µM (active).

In the case of O=C(NCCC1=CCCCC1)c1coc(=O)c(Br)c1, the EC50 [9] is reported as 28.9 µM (active), the EC50 [10] is reported as > 59.6 µM (inactive) and the AC50 [11] is reported as 6.05 µM (active). For the same compound, the EC50 [12] was 28.6 µM (active) and the EC50 [13] was > 59.6 µM (inactive).

For Cc1ccc(C)c(NC(=O)CCNS(=O)(=O)c2ccc3[nH]c(=O)oc3c2)c1, the IC50 [14] was 22.6 µM (active), the IC50 [15] was > 100 µM (inactive) and the IC50 [16] was 5.21 µM (active).

In the case of O=c1c2ccccc2nc(COc2ccccc2)n1N=Cc1cc([N+](=O)[O-])ccc1O, the IC50 [17] is reported as 43.7 µM (active).

With O=C(Nc1nc(-c2ccccn2)cs1)c1cccc(-n2cnnn2)c1 the IC50 [1] was 2.54 µM (active), the EC50 [18] was > 350 µM (not active) and the EC50 [19] was > 350 µM (not active). For the same compound, the IC50 [2] was 2.43 µM (active), the IC50 [20] was > 79 µM (inactive) and the AC50 [5] was 8.31 µM (active). The EC50 [21] was > 150 µM (not active), the AC50 [22] was 1.56 µM (active) and the AC50 [6] was 2.58 µM (active). The EC50 [23] was 24.7 µM (active), the AC50 [7] was 2.43 µM (active) and the EC50 [24] was > 150 µM (not active).

With COc1ccccc1NC(=O)CN1CCC(n2c(C)nc3cc(F)ccc32)CC1 the IC50 [25] was 1.78 µM (active), the EC50 [10] was > 59.6 µM (inactive) and the IC50 [26] was 1.53 µM (active). For the same compound, the IC50 [27] was > 20 µM (inactive) and the EC50 [13] was > 59.6 µM (inactive).
